Reference: patent US20240270809A1, “ORAL GLP RECEPTOR AGONISTS” (priority 2020, published 2024)
Positions of bridges follow the written chain, without caps; N, C: chain ends. Non-standard residues stand in square brackets, D forms with d. Residues, ends and D or L forms follow the SMILES beside them. *: point of attachment. Malonyl(2,2-Me2,histaminyl) = CC(C)(C(=O)NCCc1cnc[nH]1)C(=O)*; Ala(1H-tetrazol-5-yl) = N[C@@H](Cc1nnn[nH]1)C(=O)O; αMeL = CC(C)C[C@](C)(N)C(=O)O; Nle = CCCC[C@H](N)C(=O)O; Aib = CC(C)(N)C(=O)O

What was measured:
human GLP2 receptor = biological target: T1, human GLP2 receptor (Homo sapiens, UniProt O95838); experiment: cAMP accumulation assay, functional agonism of human GLP2 receptor; type: cell-based; conditions: HEK cells infected with human GLP2 receptor BacMam virus, HTRF cAMP; for Emax: HEK293, read-out: Human GLP-2R agonist cAMP Emax; for EC50: read-out: Human GLP-2R agonist cAMP pEC50 (converted)
T1 construct: expressed in transfected cells; host or cells: HEK cells, BacMam virus transduction
T1 sequence (O95838 1-553): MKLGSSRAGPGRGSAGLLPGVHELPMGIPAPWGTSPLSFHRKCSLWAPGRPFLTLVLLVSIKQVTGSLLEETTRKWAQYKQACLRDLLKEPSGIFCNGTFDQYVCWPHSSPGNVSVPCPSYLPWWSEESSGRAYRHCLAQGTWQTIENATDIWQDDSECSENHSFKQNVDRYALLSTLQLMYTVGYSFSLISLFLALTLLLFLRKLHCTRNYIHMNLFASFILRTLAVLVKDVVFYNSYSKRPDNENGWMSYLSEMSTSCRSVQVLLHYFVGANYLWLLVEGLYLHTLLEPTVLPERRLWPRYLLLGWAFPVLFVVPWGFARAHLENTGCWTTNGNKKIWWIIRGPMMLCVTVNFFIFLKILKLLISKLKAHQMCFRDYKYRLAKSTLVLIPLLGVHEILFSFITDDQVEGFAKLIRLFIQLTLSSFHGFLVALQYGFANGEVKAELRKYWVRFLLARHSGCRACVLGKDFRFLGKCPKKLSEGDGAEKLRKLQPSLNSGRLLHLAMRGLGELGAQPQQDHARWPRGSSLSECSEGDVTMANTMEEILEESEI
Procedure: (§1) CAMP production upon agonist stimulation of human GLP2 or GLP1 receptor was assessed utilizing HiRange cAMP kit (Cisbio). In brief, HEK cells were infected with either human GLP2 or GLP1 receptor BacMam virus for 24 hours and frozen for later use in the assay. […] Cells were prepared in the assay buffer (HBSS (Lonza) supplemented with 0.5 mM IBMX (Tocris)). After 45 min incubation at 37° C., the reaction was stopped by addition of the HTRF detection reagents in the lysis buffer provided in the kit.

human GLP1 receptor = biological target: T2, human GLP1 receptor (Homo sapiens, UniProt P43220); experiment: cAMP accumulation assay, functional agonism of human GLP1 receptor; type: cell-based; conditions: HEK cells infected with human GLP1 receptor BacMam virus, HTRF cAMP; for Emax: HEK293, read-out: Human GLP-1R agonist cAMP Emax; for EC50: read-out: Human GLP-1R agonist cAMP pEC50 (converted)
T2 construct: expressed in transfected cells; host or cells: HEK cells, BacMam virus transduction
Procedure: as §1

T2 sequence (P43220 24-463): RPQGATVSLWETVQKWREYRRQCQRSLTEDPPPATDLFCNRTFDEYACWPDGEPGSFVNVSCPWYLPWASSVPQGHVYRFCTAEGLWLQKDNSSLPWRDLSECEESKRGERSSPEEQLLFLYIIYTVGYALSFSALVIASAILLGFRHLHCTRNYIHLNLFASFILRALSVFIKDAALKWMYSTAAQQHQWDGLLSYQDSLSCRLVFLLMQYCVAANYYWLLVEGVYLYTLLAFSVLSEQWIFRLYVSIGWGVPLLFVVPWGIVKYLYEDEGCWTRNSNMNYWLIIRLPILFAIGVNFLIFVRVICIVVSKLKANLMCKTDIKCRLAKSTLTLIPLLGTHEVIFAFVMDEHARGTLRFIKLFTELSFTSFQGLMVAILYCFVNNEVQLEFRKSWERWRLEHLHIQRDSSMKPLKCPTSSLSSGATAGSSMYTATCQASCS

Row | Structure (SMILES) | Emax (human GLP2 receptor) | EC50 (human GLP2 receptor) | Emax (human GLP1 receptor) | EC50 (human GLP1 receptor)
1 | CCCC[C@H](NC(=O)[C@H](CCC(=O)O)NC(=O)[C@@H]1CC(=O)NCCCC[C@H](NC(=O)[C@H](CC(=O)O)NC(=O)C(C)(C)NC(=O)[C@@H](N)Cc2c[nH]cn2)C(=O)N[C@@H](CO)C(=O)N[C@@H](Cc2ccccc2)C(=O)N[C@@H](CO)C(=O)N1)C(=O)N[C@H](Cc1ccccc1)C(=O)N[C@H]1CCCCNC(=O)C[C@@H](C(=O)N[C@@H](CCCCN)C(=O)N[C@@H](C)C(=O)N[C@@H](C)C(=O)NC(C)(C)C(=O)N[C@@H](CC(=O)O)C(=O)N[C@@H](Cc2ccccc2)C(=O)N[C@H](C(=O)N[C@H]2CCC(=O)NCCCC[C@@H](C(=O)N[C@H]3CCC(=O)NCCCC[C@@H](C(N)=O)NC(=O)[C@H]([C@@H](C)O)NC(=O)[C@H]([C@@H](C)CC)NC(=O)[C@H](CCCCN)NC3=O)NC(=O)[C@H]([C@@H](C)CC)NC(=O)[C@H](CC(C)C)NC(=O)[C@H](Cc3c[nH]c4ccccc34)NC2=O)[C@@H](C)CC)NC(=O)[C@H](CC(=O)O)NC(=O)[C@H](CC(C)C)NC(=O)[C@H]([C@@H](C)CC)NC1=O [Example 47] (H-H[Aib]DKSFSDE[Nle][dF]KILDDKAA[Aib]DFIEWLIKEKITK-NH2; lactam 4-8, 12-16, 24-28, 29-33; N-terminus and C-terminus assumed) | 104% | 0.158 nM | 93.6% | 0.316 nM
2 | CCCC[C@H](NC(=O)[C@H](CCC(=O)O)NC(=O)[C@@H]1CC(=O)NCCCC[C@H](NC(=O)[C@H](CCC(N)=O)NC(=O)C(C)(C)C(=O)NCCc2c[nH]cn2)C(=O)N[C@@H](CO)C(=O)N[C@@H](Cc2ccccc2)C(=O)N[C@@H](CO)C(=O)N1)C(=O)N[C@H](Cc1ccccc1)C(=O)N[C@H](C(=O)N[C@@](C)(CC(C)C)C(=O)N[C@@H](CC(C)C)C(=O)N[C@@H](CC(=O)O)C(=O)N[C@H]1CCC(=O)NCCCC[C@@H](C(=O)N[C@@H](CC(=O)O)C(=O)N[C@@H](Cc2ccccc2)C(=O)N[C@H](C(=O)N[C@H]2CCC(=O)NCCCC[C@@H](C(=O)N[C@H]3CCC(=O)NCCCC[C@@H](C(N)=O)NC(=O)[C@H]([C@@H](C)O)NC(=O)[C@H]([C@@H](C)CC)NC(=O)[C@H](CCCCN)NC3=O)NC(=O)[C@H]([C@@H](C)CC)NC(=O)[C@H](CC(C)C)NC(=O)[C@H](Cc3c[nH]c4ccccc34)NC2=O)[C@@H](C)CC)NC(=O)[C@H](C)NC(=O)[C@H](C)NC(=O)[C@H](CCCCN)NC1=O)[C@@H](C)O [Example 69] ({Malonyl(2,2-Me2,histaminyl)}-QKSFSDE[Nle][dF]T[αMeL]LDEKAAKDFIEWLIKEKITK-NH2; lactam 2-6, 14-18, 22-26, 27-31 (inferred); C-terminus assumed) | 95% | 0.501 nM | 83.7% | 6.31 nM
3 | CCCC[C@H](NC(=O)[C@H](CCC(=O)O)NC(=O)[C@@H]1CC(=O)NCCCC[C@H](NC(=O)[C@H](CC(=O)O)NC(=O)C(C)(C)C(=O)NCCc2c[nH]cn2)C(=O)N[C@@H](CO)C(=O)N[C@@H](Cc2ccccc2)C(=O)N[C@@H](CO)C(=O)N1)C(=O)N[C@H](Cc1ccccc1)C(=O)N[C@H](C(=O)N[C@@](C)(CC(C)C)C(=O)N[C@@H](CC(C)C)C(=O)N[C@@H](CC(=O)O)C(=O)N[C@H]1CCC(=O)NCCCC[C@@H](C(=O)N[C@@H](CC(=O)O)C(=O)N[C@@H](Cc2ccccc2)C(=O)N[C@H](C(=O)N[C@H]2CCC(=O)NCCCC[C@@H](C(=O)N[C@H]3CCC(=O)NCCCC[C@@H](C(N)=O)NC(=O)[C@H]([C@@H](C)O)NC(=O)[C@H]([C@@H](C)CC)NC(=O)[C@H](CCCCN)NC3=O)NC(=O)[C@H]([C@@H](C)CC)NC(=O)[C@H](CC(C)C)NC(=O)[C@H](Cc3c[nH]c4ccccc34)NC2=O)[C@@H](C)CC)NC(=O)[C@H](C)NC(=O)[C@H](C)NC(=O)[C@H](CCCCN)NC1=O)[C@@H](C)O [Example 68] ({Malonyl(2,2-Me2,histaminyl)}-DKSFSDE[Nle][dF]T[αMeL]LDEKAAKDFIEWLIKEKITK-NH2; lactam 2-6, 14-18, 22-26, 27-31 (inferred); C-terminus assumed) | 103% | 0.0794 nM | 94% | 0.316 nM

The remaining lines, values ahead:

Row | Emax (human GLP2 receptor) | EC50 (human GLP2 receptor) | Emax (human GLP1 receptor) | EC50 (human GLP1 receptor) | Structure (SMILES)
4 | 104% | 0.02 nM | 92% | 0.501 nM | CCCC[C@@H]1NC(=O)[C@H](CCC(=O)O)NC(=O)[C@@H](NC(=O)[C@H](CO)NC(=O)[C@H](Cc2ccccc2)NC(=O)[C@H](CO)NC(=O)CNC(=O)[C@H](Cc2nn[nH]n2)NC(=O)C(C)(C)C(=O)NCCc2c[nH]cn2)CCCCNC(=O)C[C@@H](C(=O)N[C@H](C(=O)N[C@@H](CC(C)C)C(=O)N[C@@H](CC(=O)O)C(=O)N[C@H]2CCC(=O)NCCCC[C@@H](C(=O)N[C@@H](CC(=O)O)C(=O)N[C@@H](Cc3ccccc3)C(=O)N[C@H](C(=O)N[C@@H](CC(N)=O)C(=O)N[C@@H](Cc3c[nH]c4ccccc34)C(=O)N[C@@H](CC(C)C)C(=O)N[C@H](C(=O)N[C@@H](CCC(N)=O)C(=O)N[C@H](C(=O)N[C@@H](CCCCN)C(=O)N[C@H](C(=O)N[C@H](C(=O)N[C@@H](Cc3ccccc3)C(N)=O)[C@@H](C)O)[C@@H](C)CC)[C@@H](C)O)[C@@H](C)CC)[C@@H](C)CC)NC(=O)[C@H](C)NC(=O)[C@H](C)NC(=O)[C@H](CCCCN)NC2=O)[C@@H](C)CC)NC(=O)[C@@H](Cc2ccccc2)NC1=O [Example 115] ({Malonyl(2,2-Me2,histaminyl)}-[Ala(1H-tetrazol-5-yl)]GSFSKE[Nle][dF]DILDEKAAKDFINWLIQTKITF-NH2; lactam 6-10, 14-18 (inferred); C-terminus assumed)
5 | 103% | 0.00794 nM | 96.8% | 0.2 nM | CCCC[C@@H]1NC(=O)[C@H](CCC(=O)O)NC(=O)[C@@H](NC(=O)[C@H](CO)NC(=O)[C@H](Cc2ccccc2)NC(=O)[C@H](CO)NC(=O)[C@@H](C)NC(=O)[C@H](Cc2nn[nH]n2)NC(=O)C(C)(C)C(=O)NCCc2c[nH]cn2)CCCCNC(=O)C[C@@H](C(=O)N[C@@](C)(CC(C)C)C(=O)N[C@@H](CC(C)C)C(=O)N[C@@H](CC(=O)O)C(=O)N[C@H]2CCC(=O)NCCCC[C@@H](C(=O)N[C@@H](CC(=O)O)C(=O)N[C@@H](Cc3ccccc3)C(=O)N[C@H](C(=O)N[C@@H](CC(N)=O)C(=O)N[C@@H](Cc3c[nH]c4ccccc34)C(=O)N[C@@H](CC(C)C)C(=O)N[C@H](C(=O)N[C@@H](CCC(N)=O)C(=O)N[C@H]3CCC(=O)NCCCC[C@@H](C(N)=O)NC(=O)[C@H]([C@@H](C)O)NC(=O)[C@H]([C@@H](C)CC)NC(=O)[C@H](CCCCN)NC3=O)[C@@H](C)CC)[C@@H](C)CC)NC(=O)[C@H](C)NC(=O)[C@H](C)NC(=O)[C@H](CCCCN)NC2=O)NC(=O)[C@@H](Cc2ccccc2)NC1=O [Example 24] ({Malonyl(2,2-Me2,histaminyl)}-[Ala(1H-tetrazol-5-yl)][dA]SFSKE[Nle][dF]D[αMeL]LDEKAAKDFINWLIQEKITK-NH2; lactam 6-10, 14-18, 27-31 (inferred); C-terminus assumed)
